Assay results as given in patent US10294202B2, “Pyrrolidinones as herbicides” (FMC Corporation, priority 2013, dated 2019).

What was measured:
[1] = tested on: velvetleaf; assay: Test A pre-/postemergence herbicide test; assay type: in vivo, Abutilon theophrasti; details: for Velvetleaf plant response rating: Preemergence, visual rating on 0 to 100 scale (0 no effect, 100 complete control)
In short: (§1)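 Greenhouse pot test with pre- and postemergence application of surfactant-containing solvent formulations. Postemergence plants were 2–10 cm, one- to two-leaf stage. Response scored visually after ~10 days, 0 (no effect) to 100 (complete control).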

[2] = tested on: pigweed; assay: Test A pre-/postemergence herbicide test; assay type: in vivo, Amaranthus retroflexus; details: for Pigweed plant response rating: Preemergence, visual rating on 0 to 100 scale (0 no effect, 100 complete control)
In short: as §1

[3] = tested on: giant foxtail; assay: Test A pre-/postemergence herbicide test; assay type: in vivo, Setaria faberii; details: for Foxtail, Giant plant response rating: Preemergence, visual rating on 0 to 100 scale (0 no effect, 100 complete control)
In short: as §1

[4] = tested on: barnyardgrass; assay: Test A pre-/postemergence herbicide test; assay type: in vivo, Echinochloa crus-galli; details: for Barnyardgrass plant response rating: Preemergence, visual rating on 0 to 100 scale (0 no effect, 100 complete control)
In short: as §1

[5] = tested on: ducksalad; assay: Test B flooded paddy test; assay type: in vivo, Heteranthera limosa; details: 250 g ai/ha, Flood; scale of 0 to 100 where 0 is no effect and 100 is complete control
In short: (§2)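 Plants grown to 2-leaf stage; pots flooded 3 cm above soil and compound applied directly into paddy water, depth held throughout. Visual rating against untreated controls after 13 to 15 days in greenhouse, 0 (no effect) to 100 (complete control).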

[6] = tested on: rice; assay: Test B flooded paddy test; assay type: in vivo, Oryza sativa; details: 250 g ai/ha, Flood; scale of 0 to 100 where 0 is no effect and 100 is complete control
In short: as §2

[7] = tested on: wheat; assay: Test A pre-/postemergence herbicide test; assay type: in vivo, Triticum aestivum; details: for Wheat plant response rating: Preemergence, visual rating on 0 to 100 scale (0 no effect, 100 complete control)
In short: as §1

[8] = tested on: morningglory; assay: Test A pre-/postemergence herbicide test; assay type: in vivo, Ipomoea spp.; details: for Morningglory plant response rating: Preemergence, visual rating on 0 to 100 scale (0 no effect, 100 complete control)
In short: as §1

[9] = tested on: crabgrass, large; assay: Test A pre-/postemergence herbicide test; assay type: in vivo, Digitaria sanguinalis; details: for Crabgrass, Large plant response rating: Preemergence, visual rating on 0 to 100 scale (0 no effect, 100 complete control)
In short: as §1

[10] = tested on: sedge, umbrella; assay: Test B flooded paddy test; assay type: in vivo, Cyperus difformis; details: 250 g ai/ha, Flood; scale of 0 to 100 where 0 is no effect and 100 is complete control
In short: as §2

[11] = tested on: barnyardgrass; assay: Test B flooded paddy test; assay type: in vivo, Echinochloa crus-galli; details: 250 g ai/ha, Flood; scale of 0 to 100 where 0 is no effect and 100 is complete control
In short: as §2

[12] = tested on: corn; assay: Test A pre-/postemergence herbicide test; assay type: in vivo, Zea mays; details: for Corn plant response rating: Preemergence, visual rating on 0 to 100 scale (0 no effect, 100 complete control)
In short: as §1

[13] = Postemergence, 125 g ai/ha, 0 to 100 scale, 0 no effect, 100 complete control
[14] = Postemergence, 500 g ai/ha, 0 to 100 scale (0 no effect, 100 complete control)
[15] = preemergence, 500 g ai/ha, 0 to 100 scale
[16] = preemergence, 500 g ai/ha, 0 to 100 scale (0 no effect, 100 complete control)

Structure (SMILES) | Plant response rating, Velvetleaf [1, 13] | Plant response rating, Velvetleaf [1, 14] | Velvetleaf plant response rating ([1]; 125 g ai/ha) | Plant response rating, Velvetleaf [1, 15] | Plant response rating, Pigweed [2, 13] | Plant response rating, Pigweed [2, 14] | Pigweed plant response rating ([2]; 125 g ai/ha) | Plant response rating, Pigweed [2, 15] | Plant response rating, Foxtail, Giant [3, 13] | Plant response rating, Foxtail, Giant [3, 14] | Foxtail, Giant plant response rating ([3]; 125 g ai/ha) | Plant response rating, Foxtail, Giant [3, 15] | Plant response rating, Barnyardgrass [4, 13] | Plant response rating, Barnyardgrass [4, 14] | Barnyardgrass plant response rating ([4]; 125 g ai/ha) | Plant response rating, Barnyardgrass [4, 16] | Plant response rating, Ducksalad [5] | Plant response rating, Rice [6] | Plant response rating, Wheat [7, 13] | Plant response rating, Wheat [7, 14] | other results
O=C1NCC(c2ccc(Cl)nc2)C1C(=O)Nc1ccccc1F (stereo not drawn) [Compound 41] | 0 | 30 | 0 | 0 | 0 | 30 | 0 | 0 | 0 | 0 | 10 | 70 | 0 | 50 | 30 | 60 | 70 | 0 | 0 | 0 | Wheat plant response rating ([7]; 125 g ai/ha): 0; Plant response rating, Wheat [7, 15]: 0; Plant response rating, Morningglory [8, 13]: 0; Plant response rating, Morningglory [8, 14]: 0; Plant response rating, Crabgrass, Large [9, 13]: 30; Plant response rating, Crabgrass, Large [9, 14]: 60; Crabgrass, Large plant response rating ([9]; 125 g ai/ha): 60; Plant response rating, Crabgrass, Large [9, 15]: 90; Plant response rating, Sedge, Umbrella [10]: 20; Plant response rating, Barnyardgrass [11]: 0; Plant response rating, Corn [12, 13]: 0; Plant response rating, Corn [12, 14]: 0; Corn plant response rating ([12]; 125 g ai/ha): 0; Plant response rating, Corn [12, 15]: 0
O=C1NCC(c2ccc(F)c(F)c2)C1C(=O)Nc1ccccn1 (stereo not drawn) [Compound 45] | 0 | 0 | 0 | 0 | 0 | 0 | 0 | 0 | 20 | 70 | 50 | 80 | 50 | 80 | 10 | 80 | 80 | 20 | 0 | 0 | Wheat plant response rating ([7]; 125 g ai/ha): 0; Plant response rating, Wheat [7, 15]: 0; Plant response rating, Morningglory [8, 13]: 40; Plant response rating, Morningglory [8, 14]: 50; Morningglory plant response rating ([8]; 125 g ai/ha): 0; Plant response rating, Morningglory [8, 15]: 0; Plant response rating, Crabgrass, Large [9, 13]: 60; Plant response rating, Crabgrass, Large [9, 14]: 80; Crabgrass, Large plant response rating ([9]; 125 g ai/ha): 80; Plant response rating, Crabgrass, Large [9, 15]: 90; Plant response rating, Sedge, Umbrella [10]: 40; Plant response rating, Barnyardgrass [11]: 0; Corn plant response rating ([12]; 125 g ai/ha): 0; Plant response rating, Corn [12, 15]: 0
O=C1NCC(c2ccc(F)c(F)c2)C1C(=O)Nc1cccc[n+]1[O-] (stereo not drawn) [Compound 47] | 0 | 0 | 0 | 0 | 0 | 0 | 0 | 0 | 0 | 0 | 0 | 0 | 0 | 0 | 0 | 0 | 0 | 0 | 0 | 0 | Wheat plant response rating ([7]; 125 g ai/ha): 0; Plant response rating, Wheat [7, 15]: 0; Plant response rating, Morningglory [8, 13]: 0; Plant response rating, Morningglory [8, 14]: 20; Morningglory plant response rating ([8]; 125 g ai/ha): 0; Plant response rating, Morningglory [8, 15]: 0; Plant response rating, Crabgrass, Large [9, 13]: 0; Plant response rating, Crabgrass, Large [9, 14]: 0; Crabgrass, Large plant response rating ([9]; 125 g ai/ha): 10; Plant response rating, Crabgrass, Large [9, 15]: 60; Plant response rating, Sedge, Umbrella [10]: 0; Plant response rating, Barnyardgrass [11]: 0; Corn plant response rating ([12]; 125 g ai/ha): 0; Plant response rating, Corn [12, 15]: 0
O=C1NCC(c2cc(F)c(F)c(F)c2)C1C(=O)Nc1cccc([N+](=O)[O-])c1 (stereo not drawn) [Compound 49] | 0 | 0 | 0 | 0 | 0 | 0 | 0 | 0 | 0 | 40 | 20 | 70 | 0 | 20 | 0 | 20 | 70 | 0 | 0 | 0 | Wheat plant response rating ([7]; 125 g ai/ha): 0; Plant response rating, Wheat [7, 15]: 0; Plant response rating, Morningglory [8, 13]: 0; Plant response rating, Morningglory [8, 14]: 0; Morningglory plant response rating ([8]; 125 g ai/ha): 0; Plant response rating, Morningglory [8, 15]: 0; Plant response rating, Crabgrass, Large [9, 13]: 20; Plant response rating, Crabgrass, Large [9, 14]: 70; Crabgrass, Large plant response rating ([9]; 125 g ai/ha): 70; Plant response rating, Crabgrass, Large [9, 15]: 90; Plant response rating, Sedge, Umbrella [10]: 40; Plant response rating, Barnyardgrass [11]: 0; Plant response rating, Corn [12, 13]: 0; Plant response rating, Corn [12, 14]: 0; Corn plant response rating ([12]; 125 g ai/ha): 0; Plant response rating, Corn [12, 15]: 0
O=C1NCC(c2cc(F)c(F)cc2F)C1C(=O)Nc1ccccc1F (stereo not drawn) [Compound 51] | 0 | 0 | 0 | 0 | 0 | 0 | 0 | 0 | 0 | 30 | 30 | 90 | 0 | 20 | 0 | 0 | 80 | 15 | 0 | 0 | Wheat plant response rating ([7]; 125 g ai/ha): 0; Plant response rating, Wheat [7, 15]: 0; Plant response rating, Morningglory [8, 13]: 0; Plant response rating, Morningglory [8, 14]: 0; Morningglory plant response rating ([8]; 125 g ai/ha): 0; Plant response rating, Morningglory [8, 15]: 0; Plant response rating, Crabgrass, Large [9, 13]: 20; Plant response rating, Crabgrass, Large [9, 14]: 80; Crabgrass, Large plant response rating ([9]; 125 g ai/ha): 90; Plant response rating, Crabgrass, Large [9, 15]: 90; Plant response rating, Sedge, Umbrella [10]: 45; Plant response rating, Barnyardgrass [11]: 20; Plant response rating, Corn [12, 13]: 0; Plant response rating, Corn [12, 14]: 0; Corn plant response rating ([12]; 125 g ai/ha): 0; Plant response rating, Corn [12, 15]: 0
O=C1NCC(c2ccc(F)c(F)c2)C1C(=O)Nc1ccccc1OC(F)(F)F (stereo not drawn) [Compound 54] | 0 | 0 | 0 | 0 | 0 | 0 | 0 | 0 | 60 | 70 | 90 | 90 | 0 | 0 | 0 | 20 | 70 | 20 | 0 | 0 | Wheat plant response rating ([7]; 125 g ai/ha): 0; Plant response rating, Wheat [7, 15]: 20; Plant response rating, Morningglory [8, 13]: 0; Plant response rating, Morningglory [8, 14]: 0; Morningglory plant response rating ([8]; 125 g ai/ha): 0; Plant response rating, Morningglory [8, 15]: 0; Plant response rating, Crabgrass, Large [9, 13]: 70; Plant response rating, Crabgrass, Large [9, 14]: 80; Crabgrass, Large plant response rating ([9]; 125 g ai/ha): 90; Plant response rating, Crabgrass, Large [9, 15]: 90; Plant response rating, Sedge, Umbrella [10]: 0; Plant response rating, Barnyardgrass [11]: 0; Plant response rating, Corn [12, 13]: 0; Plant response rating, Corn [12, 14]: 0; Corn plant response rating ([12]; 125 g ai/ha): 0; Plant response rating, Corn [12, 15]: 0
